From PubChem BioAssay (NCI)
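Following 48 hours of exposure in 96-well plates, responses at five concentrations were used to interpolate endpoints linearly. GI50: concentration for 50% inhibition of growth. TGI: total growth inhibition.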

How the values were obtained:
Assay in all cases: NCI tumour cell line growth inhibition, 48 h
A498 renal = tested on: A498 renal
ACHN renal = tested on: ACHN renal
HT29 colon = tested on: HT29 colon
DU-145 prostate = tested on: DU-145 prostate
IGROV1 ovarian = tested on: IGROV1 ovarian
CAKI-1 renal = tested on: CAKI-1 renal
UACC-62 melanoma = tested on: UACC-62 melanoma
RPMI-8226 leukemia = tested on: RPMI-8226 leukemia
NCI/ADR-RES ovarian = tested on: NCI/ADR-RES ovarian
OVCAR-8 ovarian = tested on: OVCAR-8 ovarian
OVCAR-3 ovarian = tested on: OVCAR-3 ovarian
SF-539 CNS = tested on: SF-539 CNS
LOX IMVI melanoma = tested on: LOX IMVI melanoma
K-562 leukemia = tested on: K-562 leukemia
RXF 393 renal = tested on: RXF 393 renal
SN12C renal = tested on: SN12C renal
SNB-19 CNS = tested on: SNB-19 CNS
SF-268 CNS = tested on: SF-268 CNS
BT-549 breast = tested on: BT-549 breast
HOP-62 NSCLC = tested on: HOP-62 NSCLC
HL-60(TB) leukemia = tested on: HL-60(TB) leukemia
CCRF-CEM leukemia = tested on: CCRF-CEM leukemia
SK-OV-3 ovarian = tested on: SK-OV-3 ovarian
SR leukemia = tested on: SR leukemia
NCI-H460 lung = tested on: NCI-H460 lung
NCI-H23 lung = tested on: NCI-H23 lung
NCI-H226 lung = tested on: NCI-H226 lung
MDA-MB-435 = tested on: MDA-MB-435
TK-10 renal = tested on: TK-10 renal
OVCAR-5 ovarian = tested on: OVCAR-5 ovarian
U251 CNS = tested on: U251 CNS
HCC-2998 colon = tested on: HCC-2998 colon
SW-620 colon = tested on: SW-620 colon
SF-295 CNS = tested on: SF-295 CNS
MOLT-4 leukemia = tested on: MOLT-4 leukemia
SK-MEL-2 melanoma = tested on: SK-MEL-2 melanoma
OVCAR-4 ovarian = tested on: OVCAR-4 ovarian
SNB-75 CNS = tested on: SNB-75 CNS
EKVX NSCLC = tested on: EKVX NSCLC
T-47D breast = tested on: T-47D breast
UACC-257 melanoma = tested on: UACC-257 melanoma
KM12 colon = tested on: KM12 colon
MALME-3M melanoma = tested on: MALME-3M melanoma
A549 NSCLC = tested on: A549 NSCLC
MCF7 breast = tested on: MCF7 breast
MDA-MB-231 breast = tested on: MDA-MB-231 breast
SK-MEL-28 melanoma = tested on: SK-MEL-28 melanoma
UO-31 renal = tested on: UO-31 renal
HS 578T breast = tested on: HS 578T breast
HOP-92 NSCLC = tested on: HOP-92 NSCLC
M14 melanoma = tested on: M14 melanoma
786-0 renal = tested on: 786-0 renal
COLO 205 colon = tested on: COLO 205 colon
SK-MEL-5 melanoma = tested on: SK-MEL-5 melanoma
HCT-15 colon = tested on: HCT-15 colon
NCI-H522 lung = tested on: NCI-H522 lung
HCT-116 colon = tested on: HCT-116 colon
PC-3 prostate = tested on: PC-3 prostate

Compound: N/C(=N\OC(=O)c1ccccc1)C(C(=O)NOC(=O)c1ccccc1)C1CCCCC1 (stereo unspecified)
- GI50 (A498 renal): 14.8 µM
- TGI (A498 renal): 28.7 µM
- GI50 (ACHN renal): 3.04 µM
- TGI (ACHN renal): 10.9 µM
- GI50 (HT29 colon): 16.1 µM
- TGI (HT29 colon): 35.2 µM
- GI50 (DU-145 prostate): 2760 nM
- TGI (DU-145 prostate): 10.3 µM
- GI50 (IGROV1 ovarian): 1660 nM
- TGI (IGROV1 ovarian): 3.92 µM
- GI50 (CAKI-1 renal): 500 nM
- TGI (CAKI-1 renal): 1730 nM
- GI50 (UACC-62 melanoma): 11.4 µM
- TGI (UACC-62 melanoma): 32.9 µM
- GI50 (RPMI-8226 leukemia): 3.12 µM
- TGI (RPMI-8226 leukemia): 12.2 µM
- GI50 (NCI/ADR-RES ovarian): 3.79 µM
- TGI (NCI/ADR-RES ovarian): 16 µM
- GI50 (OVCAR-8 ovarian): 3.38 µM
- TGI (OVCAR-8 ovarian): 14.8 µM
- GI50 (OVCAR-3 ovarian): 4.56 µM
- TGI (OVCAR-3 ovarian): 15.9 µM
- GI50 (SF-539 CNS): 7.22 µM
- TGI (SF-539 CNS): 20.1 µM
- GI50 (LOX IMVI melanoma): 343 nM
- TGI (LOX IMVI melanoma): 1380 nM
- GI50 (K-562 leukemia): 3.08 µM
- TGI (K-562 leukemia): 10.6 µM
- GI50 (RXF 393 renal): 8.59 µM
- TGI (RXF 393 renal): 65.1 µM
- GI50 (SN12C renal): 13.4 µM
- TGI (SN12C renal): 69.4 µM
- GI50 (SNB-19 CNS): 15.4 µM
- TGI (SNB-19 CNS): 39.1 µM
- GI50 (SF-268 CNS): 2390 nM
- TGI (SF-268 CNS): 6.7 µM
- GI50 (BT-549 breast): 3.98 µM
- TGI (BT-549 breast): 15.1 µM
- GI50 (HOP-62 NSCLC): 2870 nM
- TGI (HOP-62 NSCLC): 9.09 µM
- GI50 (HL-60(TB) leukemia): 2380 nM
- TGI (HL-60(TB) leukemia): 6.07 µM
- GI50 (CCRF-CEM leukemia): 2710 nM
- TGI (CCRF-CEM leukemia): 9.79 µM
- GI50 (SK-OV-3 ovarian): 15.8 µM
- TGI (SK-OV-3 ovarian): 29.7 µM
- GI50 (SR leukemia): 1990 nM
- TGI (SR leukemia): 4.99 µM
- GI50 (NCI-H460 lung): 2850 nM
- TGI (NCI-H460 lung): 9.61 µM
- GI50 (NCI-H23 lung): 9.28 µM
- TGI (NCI-H23 lung): 24.1 µM
- GI50 (NCI-H226 lung): 15.8 µM
- TGI (NCI-H226 lung): 34.1 µM
- GI50 (MDA-MB-435): 2210 nM
- TGI (MDA-MB-435): 5.59 µM
- GI50 (TK-10 renal): 12.4 µM
- TGI (TK-10 renal): 26.9 µM
- GI50 (OVCAR-5 ovarian): 14.6 µM
- TGI (OVCAR-5 ovarian): 28.2 µM
- GI50 (U251 CNS): 1780 nM
- TGI (U251 CNS): 3.87 µM
- GI50 (HCC-2998 colon): 13.5 µM
- TGI (HCC-2998 colon): 27.2 µM
- GI50 (SW-620 colon): 11.5 µM
- TGI (SW-620 colon): 27.7 µM
- GI50 (SF-295 CNS): 2110 nM
- TGI (SF-295 CNS): 5.73 µM
- GI50 (MOLT-4 leukemia): 6.62 µM
- TGI (MOLT-4 leukemia): 49.8 µM
- GI50 (SK-MEL-2 melanoma): 12.5 µM
- TGI (SK-MEL-2 melanoma): 26.6 µM
- GI50 (OVCAR-4 ovarian): 9.4 µM
- TGI (OVCAR-4 ovarian): 37.6 µM
- GI50 (SNB-75 CNS): 2790 nM
- TGI (SNB-75 CNS): 11.9 µM
- GI50 (EKVX NSCLC): 6.1 µM
- TGI (EKVX NSCLC): 20.9 µM
- GI50 (T-47D breast): 7.57 µM
- TGI (T-47D breast): 28.2 µM
- GI50 (UACC-257 melanoma): 13.7 µM
- TGI (UACC-257 melanoma): 28.7 µM
- GI50 (KM12 colon): 11.4 µM
- TGI (KM12 colon): 25.1 µM
- GI50 (MALME-3M melanoma): 10.1 µM
- TGI (MALME-3M melanoma): 27.5 µM
- GI50 (A549 NSCLC): 2080 nM
- TGI (A549 NSCLC): 5.05 µM
- GI50 (MCF7 breast): 8.22 µM
- TGI (MCF7 breast): 23 µM
- GI50 (MDA-MB-231 breast): 18.1 µM
- TGI (MDA-MB-231 breast): 70.9 µM
- GI50 (SK-MEL-28 melanoma): 16.2 µM
- TGI (SK-MEL-28 melanoma): 50.7 µM
- GI50 (UO-31 renal): 2010 nM
- TGI (UO-31 renal): 3.96 µM
- GI50 (HS 578T breast): 2570 nM
- TGI (HS 578T breast): 7.93 µM
- GI50 (HOP-92 NSCLC): 2390 nM
- TGI (HOP-92 NSCLC): 7.72 µM
- GI50 (M14 melanoma): 10.9 µM
- TGI (M14 melanoma): 23 µM
- GI50 (786-0 renal): 13.9 µM
- TGI (786-0 renal): 26.9 µM
- GI50 (COLO 205 colon): 11.6 µM
- TGI (COLO 205 colon): 26.8 µM
- GI50 (SK-MEL-5 melanoma): 10.3 µM
- TGI (SK-MEL-5 melanoma): 22.8 µM
- GI50 (HCT-15 colon): 9.65 µM
- TGI (HCT-15 colon): 23.5 µM
- GI50 (NCI-H522 lung): 2820 nM
- TGI (NCI-H522 lung): 7.76 µM
- GI50 (HCT-116 colon): 3.45 µM
- TGI (HCT-116 colon): 13 µM
- GI50 (PC-3 prostate): 6.33 µM
- TGI (PC-3 prostate): 20.5 µM
